14 compounds from ChEMBL document CHEMBL1126336, “Benzopyranyl-cyanoguanidine potassium channel openers” (Bioorg Med Chem Lett, 1992) can be followed below.

What all share (format): functional
The species entered for test [1] is Rattus norvegicus. Put plainly: Vasorelaxant potency required to relax methoxamine contracted male Wistar Kyoto rat thoracic aorta.
In test [2] the test system is Rattus norvegicus. The test can be described thus: Antihypertensive activity expressed as percent maximum decrease in blood pressure at 45 umol/kg for 6-12 hrs in male spontaneously hypertensive rats when administered perorally.
In test [3] the test system is Rattus norvegicus. Put plainly: Antihypertensive activity expressed as percent maximum decrease in blood pressure at 45 umol/kg for 12-18 hrs in male spontaneously hypertensive rats when administered perorally.
In test [4] the test system is Rattus norvegicus. The test can be described thus: Antihypertensive activity expressed as percent maximum decrease in blood pressure at 45 umol/kg for 18-24 hrs in male spontaneously hypertensive rats when administered perorally.
Test [5] relates to Rattus norvegicus. Put plainly: Antihypertensive activity expressed as percent maximum decrease in blood pressure at 45 umol/kg for 0-6 hrs in male spontaneously hypertensive rats when administered perorally.

Broadly, the IC50 is the concentration at which inhibition is half-maximal.

Structures are written as SMILES. A value given as a limit tells only on which side of the number the result lay.

In the case of `CC1(C)Oc2ccc(C#N)cc2[C@@H](/N=C(\NC#N)N2CCN(Cc3ccccc3)CC2)[C@@H]1O`, the IC50 in test [1] stood at 13100 nM.

With `CN(C)CC/N=C(/NC#N)N[C@@H]1c2cc(C#N)ccc2OC(C)(C)[C@H]1O`, the IC50 in test [1] was greater than 100000 nM.

In turn, `CC1(C)Oc2ccc(C#N)cc2[C@@H](/N=C(\NC#N)N2CCCC2)[C@@H]1O` had an IC50 in test [1] of 34 nM.

Compound `CC1(C)Oc2ccc(C#N)cc2[C@@H](/N=C(/N)NC#N)[C@@H]1O` displayed an IC50 in test [1] of 320 nM.

The compound `CC/N=C(/NC#N)N[C@@H]1c2cc(C#N)ccc2OC(C)(C)[C@H]1O` came in with an IC50 in test [1] of 380 nM.

Take `CC1(C)Oc2ccc(C#N)cc2[C@@H](N2CCCN=C2NC#N)[C@@H]1O`: the midpoint of inhibition in test [1], the IC50, lay at 120 nM.

In test [1], `CCC(C)(C)/N=C(\NC#N)N[C@@H]1c2cc(C#N)ccc2OC(C)(C)[C@H]1O` returned a 50% inhibitory concentration (IC50) of 29800 nM.

On to `COCC/N=C(/NC#N)N[C@@H]1c2cc(C#N)ccc2OC(C)(C)[C@H]1O`, for which half-maximal inhibition in test [1] (IC50) required 1690 nM.

Take `CN(C)/C(=N/[C@@H]1c2cc(C#N)ccc2OC(C)(C)[C@H]1O)NC#N`: the IC50 in test [1] was determined as 490 nM.

On to `CC(C)/N=C(/NC#N)N[C@@H]1c2cc(C#N)ccc2OC(C)(C)[C@H]1O`, for which, in test [1], the IC50 amounted to 660 nM.

On to `CC1(C)Oc2ccc(C#N)cc2[C@@H](N2CCN=C2NC#N)[C@@H]1O`, for which, in test [1], half-maximal inhibition (IC50) was put at 470 nM.

Consider `C/N=C(\NC#N)N[C@@H]1c2cc(C#N)ccc2OC(C)(C)[C@H]1O`, for which the Max decrease turned out to be 44% in test [2], 23% in test [3], 15% in test [4] and 46% in test [5]. In test [1], this compound registered an IC50 of 200 nM.

Take `CC1(C)Oc2ccc(C#N)cc2[C@@H](N2CCCC2=O)[C@@H]1O` [CROMAKALIM]: the Max decrease in test [2] is listed as 35%; in test [3], 37%; in test [4] it was 42%; in test [5], 63%.

Take `CC(N/C(=N\C#N)Nc1ccncc1)C(C)(C)C` (centres undefined) [PINACIDIL ANHYDROUS]: the Max decrease in test [2] amounted to 21%; in test [3], 23%; in test [4], 14%; in test [5], 40%.
